This note sets out measurements from patent publication US20250163104A1, “MACROCYCLIC IMMUNOMODULATORS” (priority 2021, published 2025).

This assay has as its target T1, human PD-1 / PD-L1-Ig binding on Jurkat cell line over-expressing human PD-1 (Jurkat-PD-1) (Homo sapiens, UniProt Q15116).
T1 construct: expressed in transfected cells; host or cells: Jurkat
Description: Jurkat-PD-1 Cell Binding High-Content Screening Assay (CBA). It counts as cell-based. The settings on record: Jurkat-PD-1 cells, PE-labeled PD-L1-Ig 20 nM final; read-out: Jurkat HPD1_PDL1 IC50. In short, it runs like this:
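PE-PD-L1-Ig 20 nM final; cells in DMEM/10% FCS; cpd pre-incubation 2 h, 37° C; ligand 1 h; PFA fix + Hoechst 33342; high-content imaging read-out.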

A word on the IC50: it is the point on the concentration scale where inhibition reaches its midpoint.

*1 amine or outer side, *2 acyl side, *3 side chain or, on linkers, in order; H or OH if unused. Where a SMILES comes first, the peptide text is derived from it. Bridges are numbered along the chain shown (N, C = ends). [ ]: non-standard residue; d: D form. The star is where a group is joined. ξ: configuration not given here. X3 = O=C([C@H](CCCNC[C@@H](O)[C@H](O)[C@H](O)[C@@H](O)[C@H](O)CO)N[*:1])[*:2]; Phe(3-COOH) = N[C@@H](Cc1cccc(C(=O)O)c1)C(=O)O; Phe(4-COOH) = N[C@@H](Cc1ccc(C(=O)O)cc1)C(=O)O; Phe(4-CH2NH2) = NCc1ccc(C[C@H](N)C(=O)O)cc1; Bip = N[C@@H](Cc1ccc(-c2ccccc2)cc1)C(=O)O; Phe(3-Cl) = N[C@@H](Cc1cccc(Cl)c1)C(=O)O; Phe(3-OMe) = COc1cccc(C[C@H](N)C(=O)O)c1; X7 = CC(=N)NCCC[C@@H](N[*:1])C(=O)[*:2]; Phe(3-Me) = Cc1cccc(C[C@H](N)C(=O)O)c1; Phe(4-Me) = Cc1ccc(C[C@H](N)C(=O)O)cc1; Val(3-OH) = CC(C)(O)[C@H](N)C(=O)O; 4Pal = N[C@@H](Cc1ccncc1)C(=O)O; 3Thi = N[C@@H](Cc1ccsc1)C(=O)O; Cha = N[C@@H](CC1CCCCC1)C(=O)O; Cit = NC(=O)NCCC[C@H](N)C(=O)O; Thr(3ξ) = CC(O)[C@H](N)C(=O)O; Carboxymethyl = O=C(O)C*; Orn = NCCC[C@H](N)C(=O)O; Pra = C#CC[C@H](N)C(=O)O; Dab = NCC[C@H](N)C(=O)O; Nva = CCC[C@H](N)C(=O)O; Dap = NC[C@H](N)C(=O)O; CF3 = FC(F)(F)*

T1 sequence (Q15116 25-288): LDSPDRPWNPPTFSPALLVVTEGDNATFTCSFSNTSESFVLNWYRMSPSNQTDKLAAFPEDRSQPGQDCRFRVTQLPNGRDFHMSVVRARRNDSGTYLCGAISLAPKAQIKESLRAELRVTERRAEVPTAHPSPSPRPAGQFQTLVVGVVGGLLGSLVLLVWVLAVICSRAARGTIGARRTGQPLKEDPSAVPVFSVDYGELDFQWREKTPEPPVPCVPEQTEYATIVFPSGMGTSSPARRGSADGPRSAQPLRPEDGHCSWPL

Take `C#CC[C@H](NC(=O)[C@@H]1CSCC(=O)N[C@@H](CCC)C(=O)N[C@@H](Cc2ccc(OCC(=O)O)cc2)C(=O)N[C@@H](CC(=O)O)C(=O)N[C@@H](Cc2cccc(C)c2)C(=O)N[C@@H](Cc2ccc(OCC(=O)O)cc2)C(=O)N[C@@H](Cc2ccc(-c3ccccc3)cc2)C(=O)N[C@@H](Cc2ccc(OCC(=O)O)cc2)C(=O)N[C@@H](CCCNC[C@@H](O)[C@H](O)[C@H](O)[C@@H](O)[C@H](O)CO)C(=O)N[C@H](CC(C)C)C(=O)N[C@@H](CCC)C(=O)N[C@@H](CC2CCCCC2)C(=O)N[C@@H](C(C)C)C(=O)N[C@@H](CCC(=O)O)C(=O)N1)C(=O)O` [Compound 2698] ({CH2CO}-[Nva]Y(Carboxymethyl)D[Phe(3-Me)]Y(Carboxymethyl)[Bip]Y(Carboxymethyl)[X3][dL][Nva][Cha]VEC[Pra]-OH; thioether N-14): the IC50 was determined as 129 nM.

Regarding `Cc1cccc(C[C@@H]2NC(=O)[C@H](CC(=O)O)NC(=O)[C@H](Cc3ccc(OCC(=O)O)cc3)NC(=O)[C@H](CCN)NC(=O)CSC[C@@H](C(=O)N[C@@H](CCN)C(N)=O)NC(=O)[C@H](CCC(=O)O)NC(=O)[C@H](C(C)(C)O)NC(=O)[C@H](CC3CCCCC3)NC(=O)[C@H](CCN)NC(=O)[C@@H](CC(C)C)NC(=O)[C@H](CCCN)NC(=O)[C@H](Cc3ccc(OC(F)(F)F)cc3)NC(=O)[C@H](Cc3ccc(-c4ccccc4)cc3)NC(=O)[C@H](Cc3ccc(OCC(=O)O)cc3)NC2=O)c1` [Compound 2694] ({CH2CO}-[Dab]Y(Carboxymethyl)D[Phe(3-Me)]Y(Carboxymethyl)[Bip]Y(CF3)[Orn][dL][Dab][Cha][Val(3-OH)]EC[Dab]-NH2; thioether N-14), the IC50 is 16.5 nM.

As for `CC(C)C[C@@H]1NC(=O)[C@H](Cc2c[nH]c3ccccc23)NC(=O)[C@H](CC(=O)O)NC(=O)[C@H](Cc2ccc(CN)cc2)NC(=O)[C@H](Cc2ccccc2)NC(=O)CSC[C@@H](C(=O)N[C@@H](C)C(N)=O)NC(=O)[C@H](CO)NC(=O)[C@H](C(C)C)NC(=O)[C@H](CC2CCCCC2)NC(=O)[C@H](CN)NC(=O)[C@@H](CC(C)C)NC(=O)[C@H](CCCN)NC(=O)[C@H](CCCNC(N)=O)NC(=O)[C@H](Cc2ccc(-c3ccccc3)cc2)NC1=O` [Compound 2503] ({CH2CO}-F[Phe(4-CH2NH2)]DWL[Bip][Cit][Orn][dL][Dap][Cha]VSCA-NH2; thioether N-14), the IC50 was 33 nM.

Take `CC(=N)NCCC[C@@H](NC(=O)[C@@H]1CSCC(=O)N[C@@H](Cc2ccc(OCC(=O)O)cc2)C(=O)N[C@@H](Cc2ccc(C(=O)O)cc2)C(=O)N[C@@H](CC(=O)O)C(=O)N[C@@H](Cc2cccc(C)c2)C(=O)N[C@@H](C(C)C)C(=O)N[C@@H](Cc2ccc(-c3ccccc3)cc2)C(=O)N[C@@H](C(C)C)C(=O)N[C@@H](CCN)C(=O)N[C@H](CC(C)C)C(=O)N[C@@H](CCN)C(=O)N[C@@H](CC2CCCCC2)C(=O)N[C@@H](C(C)C)C(=O)N[C@@H](CCCN)C(=O)N1)C(=O)O` [Compound 2588] ({CH2CO}-Y(Carboxymethyl)[Phe(4-COOH)]D[Phe(3-Me)]V[Bip]V[Dab][dL][Dab][Cha]V[Orn]C[X7]-OH; thioether N-14): the IC50 came out at 10.1 nM.

`CC(C)C[C@H]1NC(=O)[C@H](CCCN)NC(=O)[C@H](CCC(=O)O)NC(=O)[C@H](Cc2ccc(-c3ccccc3)cc2)NC(=O)[C@H](C(C)C)NC(=O)[C@H](Cc2cccc(Cl)c2)NC(=O)[C@H](CC(=O)O)NC(=O)[C@H](Cc2ccc(O)cc2)NC(=O)[C@H](CC(N)=O)NC(=O)CSC[C@@H](C(=O)N[C@@H](C)C(N)=O)NC(=O)[C@H]([C@@H](C)O)NC(=O)[C@H](C(C)C)NC(=O)[C@H](CC2CCCCC2)NC(=O)[C@H](CCN)NC1=O` [Compound 1494] ({CH2CO}-NYD[Phe(3-Cl)]V[Bip]E[Orn][dL][Dab][Cha]VTCA-NH2; thioether N-14): the IC50 came to 13.8 nM.

As to `Cc1cccc(C[C@@H]2NC(=O)[C@H](CC(=O)O)NC(=O)[C@H](Cc3ccc(C(=O)O)cc3)NC(=O)[C@H](Cc3ccncc3)NC(=O)CSC[C@@H](C(=O)N[C@@H](CO)C(N)=O)NC(=O)[C@H](CCC(=O)O)NC(=O)[C@H](C(C)C)NC(=O)[C@H](CC3CCCCC3)NC(=O)[C@H](CCN)NC(=O)[C@@H](CC(C)C)NC(=O)[C@H](CCCN)NC(=O)[C@H](Cc3ccc(OCC(=O)O)cc3)NC(=O)[C@H](Cc3ccc(-c4ccccc4)cc3)NC(=O)[C@H](Cc3ccc(OCC(=O)O)cc3)NC2=O)c1` [Compound 2311] ({CH2CO}-[4Pal][Phe(4-COOH)]D[Phe(3-Me)]Y(Carboxymethyl)[Bip]Y(Carboxymethyl)[Orn][dL][Dab][Cha]VECS-NH2; thioether N-14), the IC50 came out at 11.7 nM.

Regarding `CC(C)C[C@H]1NC(=O)[C@H](CCCN)NC(=O)[C@H](CCC(=O)O)NC(=O)[C@H](Cc2ccc(-c3ccccc3)cc2)NC(=O)[C@H](C(C)C)NC(=O)[C@H](Cc2c[nH]c3ccccc23)NC(=O)[C@H](CC(=O)O)NC(=O)[C@H](Cc2ccc(C(=O)O)cc2)NC(=O)[C@H](Cc2ccc(OCC(=O)O)cc2)NC(=O)CSC[C@@H](C(=O)N[C@@H](C)C(N)=O)NC(=O)[C@H]([C@@H](C)O)NC(=O)[C@H](C(C)C)NC(=O)[C@H](Cc2ccc(O)cc2)NC(=O)[C@H](CCN)NC1=O` [Compound 1687] ({CH2CO}-Y(Carboxymethyl)[Phe(4-COOH)]DWV[Bip]E[Orn][dL][Dab]YVTCA-NH2; thioether N-14), the IC50 turned out to be 368 nM.

For the compound `CC(C)C[C@@H]1NC(=O)[C@H](Cc2c[nH]c3ccccc23)NC(=O)[C@H](CC(=O)O)NC(=O)[C@H](Cc2cccc(C(=O)O)c2)NC(=O)[C@H](CN)NC(=O)CSC[C@@H](C(=O)NCC(N)=O)NC(=O)[C@H](CO)NC(=O)[C@H](C(C)C)NC(=O)[C@H](CC2CCCCC2)NC(=O)[C@H](CCN)NC(=O)[C@@H](CC(C)C)NC(=O)[C@H](CCCN)NC(=O)[C@H](C(C)C)NC(=O)[C@H](Cc2ccc(-c3ccccc3)cc2)NC1=O` [Compound 2021] ({CH2CO}-[Dap][Phe(3-COOH)]DWL[Bip]V[Orn][dL][Dab][Cha]VSCG-NH2; thioether N-14), the IC50 was 15.1 nM.

For the compound `CC(C)C[C@H]1NC(=O)[C@H](CCN)NC(=O)[C@H](C(C)C)NC(=O)[C@H](Cc2ccc(-c3ccccc3)cc2)NC(=O)[C@H](C(C)C)NC(=O)[C@H](Cc2c[nH]c3ccccc23)NC(=O)[C@H](CC(=O)O)NC(=O)[C@H](Cc2ccc(OCC(=O)O)cc2)NC(=O)[C@H](Cc2ccsc2)NC(=O)CSC[C@@H](C(N)=O)NC(=O)[C@H](CCCCN)NC(=O)[C@H](C(C)C)NC(=O)[C@H](CC2CCCCC2)NC(=O)[C@H](CCN)NC1=O` [Compound 2614] ({CH2CO}-[3Thi]Y(Carboxymethyl)DWV[Bip]V[Dab][dL][Dab][Cha]VKC-NH2; thioether N-14), the IC50 came to 7 nM.

`CC(C)C[C@H]1NC(=O)[C@H](CCCN)NC(=O)[C@H](CCC(=O)O)NC(=O)[C@H](Cc2ccc(-c3ccccc3)cc2)NC(=O)[C@H](C(C)C)NC(=O)[C@H](Cc2c[nH]c3ccccc23)NC(=O)[C@H](CC(=O)O)NC(=O)[C@H](Cc2ccc(C#N)cc2)NC(=O)[C@H](CN)NC(=O)CSC[C@@H](C(=O)N[C@@H](C)C(N)=O)NC(=O)[C@H]([C@@H](C)O)NC(=O)[C@H](C(C)C)NC(=O)[C@H](CC2CCCCC2)NC(=O)[C@H](CCN)NC1=O` [Compound 2187]: the IC50 came out at 13.2 nM.

Regarding `COc1cccc(C[C@@H]2NC(=O)[C@H](CCN)NC(=O)[C@@H](CC(C)C)NC(=O)[C@H](CCCN)NC(=O)[C@H](CCC(=O)O)NC(=O)[C@H](Cc3ccc(-c4ccccc4)cc3)NC(=O)[C@H](C(C)C)NC(=O)[C@H](Cc3c[nH]c4ccccc34)NC(=O)[C@H](CC(=O)O)NC(=O)[C@H](Cc3ccc(OCC(=O)O)cc3)NC(=O)[C@H](CN)NC(=O)CSC[C@@H](C(=O)N[C@@H](C)C(N)=O)NC(=O)[C@H]([C@@H](C)O)NC(=O)[C@H](C(C)C)NC2=O)c1` [Compound 1469] ({CH2CO}-[Dap]Y(Carboxymethyl)DWV[Bip]E[Orn][dL][Dab][Phe(3-OMe)]VTCA-NH2; thioether N-14), the IC50 came out at 29.6 nM.

Turning to `CC(C)C[C@H]1NC(=O)[C@H](CCCN)NC(=O)[C@H](C(C)C)NC(=O)[C@H](Cc2ccc(-c3ccccc3)cc2)NC(=O)[C@H](C(C)C)NC(=O)[C@H](Cc2c[nH]c3ccccc23)NC(=O)[C@H](CC(=O)O)NC(=O)[C@H](Cc2ccc(OCC(=O)O)cc2)NC(=O)[C@H](Cc2cnc[nH]2)NC(=O)CSC[C@@H](C(=O)N[C@@H](CC(N)=O)C(N)=O)NC(=O)[C@H](C(C)O)NC(=O)[C@H](C(C)C)NC(=O)[C@H](CC2CCCCC2)NC(=O)[C@H](CCN)NC1=O` (stereo partly drawn) [Compound 2548] ({CH2CO}-HY(Carboxymethyl)DWV[Bip]V[Orn][dL][Dab][Cha]V[Thr(3ξ)]CN-NH2; thioether N-14), the IC50 amounted to 5.9 nM.

On to `Cc1ccc(C[C@@H]2NC(=O)[C@H](CN)NC(=O)CSC[C@@H](C(=O)N[C@@H](C)C(N)=O)NC(=O)[C@H]([C@@H](C)O)NC(=O)[C@H](C(C)C)NC(=O)[C@H](CC3CCCCC3)NC(=O)[C@H](CCN)NC(=O)[C@@H](CC(C)C)NC(=O)[C@H](CCCN)NC(=O)[C@H](CCCNC(N)=O)NC(=O)[C@H](Cc3ccc(-c4ccccc4)cc3)NC(=O)[C@H](C(C)C)NC(=O)[C@H](Cc3c[nH]c4ccccc34)NC(=O)[C@H](CC(=O)O)NC2=O)cc1` [Compound 2108] ({CH2CO}-[Dap][Phe(4-Me)]DWV[Bip][Cit][Orn][dL][Dab][Cha]VTCA-NH2; thioether N-14), for which the IC50 is 19.9 nM.

Regarding `C#CC[C@H](NC(=O)[C@H](CCN)NC(=O)[C@@H]1CSCC(=O)N[C@@H](Cc2ccncc2)C(=O)N[C@@H](Cc2ccc(C(=O)O)cc2)C(=O)N[C@@H](CC(=O)O)C(=O)N[C@@H](Cc2cccc(C)c2)C(=O)N[C@@H](Cc2ccc(OCC(=O)O)cc2)C(=O)N[C@@H](Cc2ccc(-c3ccccc3)cc2)C(=O)N[C@@H](Cc2ccc(OCC(=O)O)cc2)C(=O)N[C@@H](CCCN)C(=O)N[C@H](CC(C)C)C(=O)N[C@@H](CCN)C(=O)N[C@@H](CC2CCCCC2)C(=O)N[C@@H](C(C)(C)O)C(=O)N[C@@H](CO)C(=O)N1)C(=O)O` [Compound 2318] ({CH2CO}-[4Pal][Phe(4-COOH)]D[Phe(3-Me)]Y(Carboxymethyl)[Bip]Y(Carboxymethyl)[Orn][dL][Dab][Cha][Val(3-OH)]SC[Dab][Pra]-OH; thioether N-14), the IC50 was 678 nM.
